Measurements from ChEMBL document CHEMBL1128025, “Synthesis and evaluation of pyridyl analogs of L-735,524: Potent HIV-1 protease inhibitors” (Bioorg Med Chem Lett, 1994).

Assays:
[1] = Concentration maxima after oral dosing in dogs; format: ADME, organism-based, Canis lupus familiaris; parameters: route oral; conditions: dog, in vivo
[2] = test system: Human immunodeficiency virus; test: Compound was tested for cellulr inhibition of HIV was determined; format: functional; conditions: Human immunodeficiency virus 1
[3] = biological target: Human immunodeficiency virus type 1 protease (Human immunodeficiency virus 1, UniProt Q72874); test: Inhibition of Human Immunodeficiency virus-1 protease
[4] = test system: Human immunodeficiency virus; test: Compound was tested for cellulr inhibition of HIV was determined; Range is 6-12; format: functional; conditions: Human immunodeficiency virus 1
[5] = test system: Human immunodeficiency virus; test: Compound was tested for cellulr inhibition of HIV was determined; Range is 12-25; format: functional; conditions: Human immunodeficiency virus 1
[6] = test system: Human immunodeficiency virus; test: Compound was tested for cellulr inhibition of HIV was determined; Range is 25-50; format: functional; conditions: Human immunodeficiency virus 1

SMILES	Cmax [1] [nM]	IC95 [2] [nM]	IC50 [3] [nM]	IC95 [4] [nM]	IC95 [5] [nM]	IC95 [6] [nM]
CC(C)(C)NC(=O)[C@@H]1CN(Cc2cccnc2)CCN1C[C@@H](O)C[C@@H](Cc1ccncc1)C(=O)N[C@H]1c2ccccc2C[C@H]1O	414	> 200	1.7	–	–	–
CC(C)(C)NC(=O)[C@@H]1CN(Cc2cc3sccc3s2)CCN1C[C@@H](O)C[C@@H](Cc1cccnc1)C(=O)N[C@H]1c2ccccc2C[C@H]1O	3290	–	0.09	12	–	–
CC(C)(C)NC(=O)[C@@H]1CN(Cc2cccnc2)CCN1C[C@@H](O)C[C@@H](Cc1cccnc1)C(=O)N[C@H]1c2ccccc2C[C@H]1O	–	> 200	1.7	–	–	–
CC(C)(C)NC(=O)[C@@H]1CN(Cc2c(F)cccc2F)CCN1C[C@@H](O)C[C@@H](Cc1cccnc1)C(=O)N[C@H]1c2ccccc2C[C@H]1O	1010	12.2	0.14	–	–	–
CC(C)(C)NC(=O)[C@@H]1CN(Cc2cc(Br)cs2)CCN1C[C@@H](O)C[C@@H](Cc1ccncc1)C(=O)N[C@H]1c2ccccc2C[C@H]1O	2200	–	0.11	–	25	–
CC(C)(C)NC(=O)[C@@H]1CN(Cc2c(F)cccc2F)CCN1C[C@@H](O)C[C@@H](Cc1ccncc1)C(=O)N[C@H]1c2ccccc2C[C@H]1O	8060	–	0.48	–	–	50
CC(C)(C)NC(=O)[C@@H]1CN(Cc2cc(Br)cs2)CCN1C[C@@H](O)C[C@@H](Cc1cccnc1)C(=O)N[C@H]1c2ccccc2C[C@H]1O	633	25	0.03	–	–	–
CC(C)(C)NC(=O)[C@@H]1CN(S(=O)(=O)c2cccc3cccnc23)CCN1C[C@@H](O)C[C@@H](Cc1ccncc1)C(=O)N[C@H]1c2ccccc2C[C@H]1O	–	200	0.015	–	–	–
CC(C)(C)NC(=O)[C@@H]1CN(Cc2cc3ccsc3s2)CCN1C[C@@H](O)C[C@@H](Cc1ccncc1)C(=O)N[C@H]1c2ccccc2C[C@H]1O	1730	–	0.06	12	–	–
CC(C)(C)NC(=O)[C@@H]1CN(S(=O)(=O)c2cccc3cccnc23)CCN1C[C@@H](O)C[C@@H](Cc1cccnc1)C(=O)N[C@H]1c2ccccc2C[C@H]1O	–	> 200	0.03	–	–	–
CC(C)(C)NC(=O)[C@@H]1CN(Cc2cc3ccsc3s2)CCN1C[C@@H](O)C[C@@H](Cc1cccnc1)C(=O)N[C@H]1c2ccccc2C[C@H]1O	7290	–	0.12	12	–	–
CC(C)(C)NC(=O)[C@@H]1CN(Cc2cc3sccc3s2)CCN1C[C@@H](O)C[C@@H](Cc1ccncc1)C(=O)N[C@H]1c2ccccc2C[C@H]1O	1590	–	0.05	12	–	–
CC(C)(C)NC(=O)[C@@H]1CN(Cc2cccnc2)CCN1C[C@@H](O)C[C@@H](Cc1ccccc1)C(=O)N[C@H]1c2ccccc2C[C@H]1O [INDINAVIR]	–	50	–	–	–	–
